Measured values taken from patent US5506213A, “Adminstration of 2'-halo-2'-deoxy adenosine to treat inflammatory bowel disease” (priority 1994, dated 1996).

Tests used:
autoantibody production = assay: 2-Chlorodeoxyadenosine in autohemolytic anemia patients; assay type: in vivo, human
Text: Thus, the present invention provides a method for decreasing the number of circulating blood monocytes.

[1] = tested on: delayed-type hypersensitivity (DTH) reaction; assay: Delayed-type hypersensitivity to ovalbumin in guinea pigs, different dosages of CdA; assay type: in vivo, guinea pig; conditions: for swelling compared to control saline treated animals: 24 and 48 hours post-challenge, p<0.01
Procedure: Delayed-type hypersensitivity (DTH) is a cell-mediated immune response that typically takes longer than 12 hours to develop. In the guinea pig, a DTH reaction to an antigen can be established by first immunizing the animal with the antigen in an adjuvant such as Freund's complete adjuvant. Subsequent intradermal injection of the antigen causes no change for at least 10 hours, after which there is a gradual increase in erythema and swelling in response to antigen injection. This response peaks about at about 24 hours after challenge, then gradually subsides.
In another study, the effects of different dosages of CdA on the DTH reaction were examined. Guinea pigs sensitized to ovalbumin were treated with saline (control), dexamethasone (5 mg/kg), and CdA at 1 mg/kg or 0.1 mg/kg. Three days after treatment, the animals were challenged with ovalbumin intradermally. The areas of the skin lesions were measured at 6, 24, and 48 hours after challenge.

[2] = tested on: RNA synthesis in monocytes; assay: Monocyte RNA synthesis, 3H-uridine incorporation; assay type: cell-based, human; conditions: 1 nM CdA; detectable after the first hour of culture
Procedure: FIG. 5 is a graph showing the biochemical effects induced in human monocytes in vitro by exposure to […] CdA over a period of 16 hours. The effects of CdA exposure upon monocyte viability (open squares), NAD content (closed squares), RNA synthesis (open circles) and DNA strand breaks (ds-DNA; closed circles) are illustrated.
Monocyte RNA synthesis following CdA exposure was studied by measuring the incorporation of ^3 H-uridine. Monocytes were exposed to ^3 H-uridine (20 μCi/10^6 cells) during the final 1 hour of CdA (1 nM) exposure. Radioactivity measured was contained in trichloroacetic acid precipitates collected onto cellulose acetate filters and measured by liquid scintillation counting.

[3] = tested on: freshly isolated human monocytes; assay: Dose- and time-dependence of CdA cytotoxicity toward monocytes; assay type: cell-based; conditions: 50 nM CdA (FIG. 3)
Procedure: FIG. 3 is a graph of the dose- and time-dependence of 2-chlorodeoxyadenosine (CdA) cytotoxicity toward human monocytes in vitro.
Freshly isolated human monocytes were cultured at a concentration of 10^5 cells/well in 96-well flat-bottom tissue culture plates. The cells were incubated in complete medium (Example 2) for about 12 hours following initial plating. The cells were then treated by the addition of various concentrations of CdA to form monocyte-containing compositions specific wells and the plates were incubated, as discussed previously.
The percentage of viable cells that were present in wells containing the treated monocytes was determined daily for six days.

rheumatoid arthritis = assay: CdA 5-day continuous infusion in rheumatoid arthritis patients: cell counts and joint parameters; assay type: in vivo, human
Procedure: FIG. 7 is a graph showing the results of a study of the cytotoxicity of CdA toward monocytes and lymphocytes of a rheumatoid arthritis patient receiving CdA therapy. A continuous intravenous infusion of CdA (0.1 mg/ml in isotonic saline) was administered at a dosage of 0.1 mg/kg per day for a five-day period. Monocyte numbers are shown as open squares and lymphocyte numbers are shown as closed diamonds. Three cycles of infusions of CdA were given, and are illustrated as open rectangles for the five-day time periods of each infusion at a position in the graph above the days in the treatment regimen on which infusions were given.
A study similar to that described in Example 1 was carried out with three patients having rheumatoid arthritis. In each instance, the patient had been unsuccessfully treated with methotrexate, a gold salt or penicillamine, which treatment had been stopped three weeks prior to the first treatment with CdA. […]
A specially trained nurse examined the number of swollen and painful joints in each of the patients prior to the start of each treatment. The values obtained are as listed for each patient.
PIP joint measurements refer to the total arthrocircameter measurements, in mm, of each proximal interphalangeal (PIP) joint, for each patient. Values are shown for each of the three patients.
Each patient was asked to rank his or her performance of nine function parameters on a 0 to 10 scale, 10 being the highest. These function parameters were: turning in bed, rising from a chair, buttoning buttons, combing hair, walking, turning knobs, climbing stairs, getting in and out of an automobile, and general well being. The total score on these nine parameters for each patient is listed as the performance index.

[4] = cited from earlier work
[5] = Pt. # 1, CdA treatment course 1
[6] = Pt. # 1, CdA treatment course 2
[7] = Pt. # 1, CdA treatment course 3
[8] = Pt. # 1, prior to start of CdA treatment course 1
[9] = Pt. # 1, prior to start of CdA treatment course 2
[10] = Pt. # 1, prior to start of CdA treatment course 3
[11] = Pt. # 2, CdA treatment course 1
[12] = Pt. # 2, CdA treatment course 2
[13] = Pt. # 2, CdA treatment course 3
[14] = Pt. # 2, prior to start of CdA treatment course 1
[15] = Pt. # 2, prior to start of CdA treatment course 2
[16] = Pt. # 2, prior to start of CdA treatment course 3
[17] = Pt. # 2, prior to start of CdA treatment course 4
[18] = Pt. # 2, prior to start of CdA treatment course 5
[19] = Pt. # 2, prior to start of CdA treatment course 6
[20] = Pt. # 3, CdA treatment course 1
[21] = Pt. # 3, CdA treatment course 2
[22] = Pt. # 3, CdA treatment course 3
[23] = Pt. # 3, prior to start of CdA treatment course 1
[24] = Pt. # 3, prior to start of CdA treatment course 2
[25] = Pt. # 3, prior to start of CdA treatment course 3
[26] = Pt. # 3, prior to start of CdA treatment course 4

Compound: Nc1nc(Cl)nc2c1ncn2[C@H]1C[C@H](O)[C@@H](CO)O1 [CdA, 2-chloro-9,1'-beta-D-2'-deoxyribosyladenine]
- autoantibody production (autoantibody production): significant decrease in autoantibody production
- hemolysis (autoantibody production): reduction in hemolysis
- numerical values of the areas of swelling relative to dexamethasone ([1]; 0.1 and 1.0 mg/kg CdA, substantially the same): slightly less than the value obtained with dexamethasone
- swelling compared to control saline treated animals ([1]; CdA 0.1 mg/kg): effective at inhibiting swelling
- swelling compared to control saline treated animals ([1]; CdA 1 mg/kg): effective at inhibiting swelling
- RNA synthesis [2]: progressive reduction in RNA synthesis
- cell viability [3]: significant decrease in cell viability within two days
- PIP Joint Measurement (Totals, in mm) (rheumatoid arthritis; [5]): 583 mm
- Performance Index (total score on nine function parameters, each 0 to 10) (rheumatoid arthritis; [5]): 70
- PIP Joint Measurement (Totals, in mm) (rheumatoid arthritis; [6]): 612 mm
- Performance Index (total score on nine function parameters, each 0 to 10) (rheumatoid arthritis; [6]): 33
- PIP Joint Measurement (Totals, in mm) (rheumatoid arthritis; [7]): 560 mm
- Performance Index (total score on nine function parameters, each 0 to 10) (rheumatoid arthritis; [7]): 27
- Painful Joints (rheumatoid arthritis; [8]): 73/38
- Swollen Joints (rheumatoid arthritis; [8]): 51/47
- Painful Joints (rheumatoid arthritis; [9]): 39
- Swollen Joints (rheumatoid arthritis; [9]): 37
- Painful Joints (rheumatoid arthritis; [10]): 23
- Swollen Joints (rheumatoid arthritis; [10]): 25
- PIP Joint Measurement (Totals, in mm) (rheumatoid arthritis; [11]): 527 mm
- Performance Index (total score on nine function parameters, each 0 to 10) (rheumatoid arthritis; [11]): 46
- PIP Joint Measurement (Totals, in mm) (rheumatoid arthritis; [12]): 526 mm
- Performance Index (total score on nine function parameters, each 0 to 10) (rheumatoid arthritis; [12]): 28
- PIP Joint Measurement (Totals, in mm) (rheumatoid arthritis; [13]): 531 mm
- Performance Index (total score on nine function parameters, each 0 to 10) (rheumatoid arthritis; [13]): 22
- PIP Joint Measurement (Totals, in mm) (rheumatoid arthritis; Pt. # 2, CdA treatment course 4): 498 mm
- PIP Joint Measurement (Totals, in mm) (rheumatoid arthritis; Pt. # 2, CdA treatment course 5): 485 mm
- PIP Joint Measurement (Totals, in mm) (rheumatoid arthritis; Pt. # 2, CdA treatment course 6): 506 mm
- Painful Joints (rheumatoid arthritis; [14]): 32
- Swollen Joints (rheumatoid arthritis; [14]): 9
- Painful Joints (rheumatoid arthritis; [15]): 34
- Swollen Joints (rheumatoid arthritis; [15]): 27
- Painful Joints (rheumatoid arthritis; [16]): 28
- Swollen Joints (rheumatoid arthritis; [16]): 25
- Painful Joints (rheumatoid arthritis; [17]): 36
- Swollen Joints (rheumatoid arthritis; [17]): 22
- Painful Joints (rheumatoid arthritis; [18]): 27
- Swollen Joints (rheumatoid arthritis; [18]): 23
- Painful Joints (rheumatoid arthritis; [19]): 26
- Swollen Joints (rheumatoid arthritis; [19]): 14
- PIP Joint Measurement (Totals, in mm) (rheumatoid arthritis; [20]): 560 mm
- Performance Index (total score on nine function parameters, each 0 to 10) (rheumatoid arthritis; [20]): 30
- PIP Joint Measurement (Totals, in mm) (rheumatoid arthritis; [21]): 548 mm
- Performance Index (total score on nine function parameters, each 0 to 10) (rheumatoid arthritis; [21]): 36
- PIP Joint Measurement (Totals, in mm) (rheumatoid arthritis; [22]): 549 mm
- Performance Index (total score on nine function parameters, each 0 to 10) (rheumatoid arthritis; [22]): 32
- PIP Joint Measurement (Totals, in mm) (rheumatoid arthritis; Pt. # 3, CdA treatment course 4): 602 mm
- Painful Joints (rheumatoid arthritis; [23]): 36
- Swollen Joints (rheumatoid arthritis; [23]): 16
- Painful Joints (rheumatoid arthritis; [24]): 40
- Swollen Joints (rheumatoid arthritis; [24]): 17
- Painful Joints (rheumatoid arthritis; [25]): 54
- Swollen Joints (rheumatoid arthritis; [25]): 14
- Painful Joints (rheumatoid arthritis; [26]): 59
- Swollen Joints (rheumatoid arthritis; [26]): 11
- time for monocyte numbers to return to approximately pre-treatment number (rheumatoid arthritis; after infusion of CdA was stopped for each cycle): within about ten days
- arthritic disease states at follow-up (rheumatoid arthritis; all three patients, reported by personal physicians): had improved
- total white cell count drop from pretreatment values (rheumatoid arthritis; follow-up, two patients, lasted about three years and over one year post treatment): about 50%
- adverse event leading to drop-out (rheumatoid arthritis; one patient, after CdA treatment): overwhelming fatigue phenomenon
- monocyte number (rheumatoid arthritis; patient 1, during each CdA administration cycle, 0.1 mg/kg per day, five days): dropped to substantially zero
- neutrophil and platelet numbers (rheumatoid arthritis; patient 1, throughout the one hundred days of the study): substantially constant
- patients with a reduction in the number of painful or swollen joints (rheumatoid arthritis; three rheumatoid arthritis patients): two of the three patients
- plasma level at which dose-limiting bone marrow suppression usually occurred ([4]; humans, infusion): greater than 20 nM
- concentration ([4]; infusion of 0.1-0.5 mg/kg/day, humans, read-out: plasma concentrations of the drug): 10 to 50 nM
- tolerability ([4]; infusion, no nausea, vomiting or fever): well tolerated
